In ChEMBL document CHEMBL1138586 (Bioorg Med Chem Lett, 2009):

How the values were obtained:
[1] = Oral bioavailability in Sprague-Dawley rat at 6 mg/kg; format: ADME, organism-based; conditions: in vivo
[2] = Inhibition of trypsin
[3] = Half life in cynomolgus monkey at 0.75 mg/kg, iv and 7.5 mg/kg, po; format: ADME, organism-based, Macaca fascicularis; conditions: in vivo
[4] = Inhibition of kallikrein
[5] = Clearance in Beagle dog at 0.5 mg/kg, iv and 2.5 mg/kg, po; format: ADME, organism-based, Canis lupus familiaris; conditions: in vivo
[6] = molecular target: Vitamin K-dependent protein C (Homo sapiens, UniProt P04070); test: Inhibition of activated anticoagulant protein C
Chain of Vitamin K-dependent protein C (P04070 43-197 limits assumed): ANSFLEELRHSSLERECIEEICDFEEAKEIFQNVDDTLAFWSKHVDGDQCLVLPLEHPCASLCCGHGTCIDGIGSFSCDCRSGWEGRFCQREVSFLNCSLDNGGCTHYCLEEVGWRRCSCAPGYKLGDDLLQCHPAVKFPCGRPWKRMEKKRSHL
Chain of Vitamin K-dependent protein C (P04070 212-461 limits assumed): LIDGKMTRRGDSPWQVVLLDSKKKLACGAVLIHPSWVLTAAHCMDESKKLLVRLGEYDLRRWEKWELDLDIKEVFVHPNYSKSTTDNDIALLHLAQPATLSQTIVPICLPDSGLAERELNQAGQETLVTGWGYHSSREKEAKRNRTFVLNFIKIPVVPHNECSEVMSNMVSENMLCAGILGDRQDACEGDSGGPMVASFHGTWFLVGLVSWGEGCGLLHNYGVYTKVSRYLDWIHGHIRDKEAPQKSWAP

Plasminogen = Plasminogen (Homo sapiens, UniProt P00747); test: Inhibition of plasmin
Chain of Plasminogen (P00747 97-580 limits assumed): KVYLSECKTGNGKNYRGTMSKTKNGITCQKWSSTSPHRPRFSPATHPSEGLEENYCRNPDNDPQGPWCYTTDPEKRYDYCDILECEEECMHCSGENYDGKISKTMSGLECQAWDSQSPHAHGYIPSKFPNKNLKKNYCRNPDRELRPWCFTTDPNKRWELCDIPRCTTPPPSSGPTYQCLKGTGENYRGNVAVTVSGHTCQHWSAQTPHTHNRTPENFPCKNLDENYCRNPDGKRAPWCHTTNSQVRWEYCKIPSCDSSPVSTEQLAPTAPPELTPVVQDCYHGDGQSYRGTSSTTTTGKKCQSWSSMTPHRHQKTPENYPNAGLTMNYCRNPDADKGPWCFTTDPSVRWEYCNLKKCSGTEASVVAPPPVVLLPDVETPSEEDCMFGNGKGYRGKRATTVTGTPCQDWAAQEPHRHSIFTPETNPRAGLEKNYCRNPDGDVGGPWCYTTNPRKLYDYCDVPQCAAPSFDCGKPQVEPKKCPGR
Chain of Plasminogen (P00747 581-810 limits assumed): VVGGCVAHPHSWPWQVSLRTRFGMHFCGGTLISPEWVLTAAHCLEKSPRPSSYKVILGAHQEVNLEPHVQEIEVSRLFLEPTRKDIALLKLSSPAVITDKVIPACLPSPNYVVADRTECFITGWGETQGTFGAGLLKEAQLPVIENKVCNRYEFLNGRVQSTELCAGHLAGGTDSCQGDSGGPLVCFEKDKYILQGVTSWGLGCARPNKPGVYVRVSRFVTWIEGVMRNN

[7] = Oral bioavailability in rat at 5 mg/kg; format: ADME, organism-based; conditions: in vivo
[8] = Fraction unbound in human plasma at 10 uM after 30 mins; format: ADME, cell-free
[9] = Half life in Beagle dog at 0.5 mg/kg, iv and 2.5 mg/kg, po; format: ADME, organism-based, Canis lupus familiaris; conditions: in vivo
[10] = AUC in cynomolgus monkey at 7.5 mg/kg, po; format: ADME, organism-based, Macaca fascicularis; set-up: dose 7.5 mg/kg, route oral; conditions: plasma
[11] = Clearance in cynomolgus monkey at 0.75 mg/kg, iv and 7.5 mg/kg, po; format: ADME, organism-based, Macaca fascicularis; conditions: in vivo
[12] = Half life in rat at 1 mg/kg, iv and 5 mg/kg, po; format: ADME, organism-based; conditions: in vivo
[13] = Oral bioavailability in Beagle dog at 2.5 mg/kg; format: ADME, organism-based, Canis lupus familiaris; conditions: in vivo
[14] = molecular target: Tissue-type plasminogen activator (Homo sapiens, UniProt P00750); test: Inhibition of tissue plasminogen activator
Chain of Tissue-type plasminogen activator (P00750 whole entry): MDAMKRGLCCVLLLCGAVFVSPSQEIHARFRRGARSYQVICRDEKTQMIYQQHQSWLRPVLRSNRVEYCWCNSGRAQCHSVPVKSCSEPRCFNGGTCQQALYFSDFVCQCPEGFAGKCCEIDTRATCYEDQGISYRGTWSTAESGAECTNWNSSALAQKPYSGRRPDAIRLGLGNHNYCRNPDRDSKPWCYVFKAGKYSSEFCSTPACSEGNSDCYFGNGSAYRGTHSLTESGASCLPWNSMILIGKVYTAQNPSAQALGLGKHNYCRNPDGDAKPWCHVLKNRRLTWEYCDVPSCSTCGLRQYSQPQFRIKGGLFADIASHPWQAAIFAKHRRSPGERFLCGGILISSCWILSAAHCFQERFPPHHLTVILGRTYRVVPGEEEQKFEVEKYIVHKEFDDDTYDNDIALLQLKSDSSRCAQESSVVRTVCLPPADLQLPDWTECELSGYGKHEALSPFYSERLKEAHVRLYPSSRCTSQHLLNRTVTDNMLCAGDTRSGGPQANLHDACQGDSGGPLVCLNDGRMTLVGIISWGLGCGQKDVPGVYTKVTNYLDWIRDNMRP

[15] = AUC in rat at 5 mg/kg, po; format: ADME, organism-based; set-up: dose 5 mg/kg, route oral; conditions: plasma
[16] = AUC in Beagle dog at 2.5 mg/kg, po; format: ADME, organism-based, Canis lupus familiaris; set-up: dose 2.5 mg/kg, route oral; conditions: plasma
[17] = Volume of distribution in cynomolgus monkey at 0.75 mg/kg, iv and 7.5 mg/kg, po; format: ADME, organism-based, Macaca fascicularis; conditions: in vivo
[18] = Volume of distribution in rat at 1 mg/kg, iv and 5 mg/kg, po; format: ADME, organism-based; conditions: in vivo
[19] = Oral bioavailability in cynomolgus monkey at 7.5 mg/kg; format: ADME, organism-based, Macaca fascicularis; conditions: in vivo
[20] = Volume of distribution in Beagle dog at 0.5 mg/kg, iv and 2.5 mg/kg, po; format: ADME, organism-based, Canis lupus familiaris; conditions: in vivo
Prothrombin = Prothrombin (Homo sapiens, UniProt P00734); test: Inhibition of thrombin
[21] = Clearance in rat at 1 mg/kg, iv and 5 mg/kg, po; format: ADME, organism-based; conditions: in vivo
Coagulation factor X = Coagulation factor X (Homo sapiens, UniProt P00742); test: Inhibition of Factor 10a
Chain of Coagulation factor X (P00742 41-179 limits assumed): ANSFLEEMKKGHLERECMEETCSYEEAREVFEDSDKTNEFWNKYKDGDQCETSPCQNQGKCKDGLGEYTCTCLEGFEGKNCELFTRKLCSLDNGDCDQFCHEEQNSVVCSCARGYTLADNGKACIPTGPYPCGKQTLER
Chain of Coagulation factor X (P00742 235-488 limits assumed): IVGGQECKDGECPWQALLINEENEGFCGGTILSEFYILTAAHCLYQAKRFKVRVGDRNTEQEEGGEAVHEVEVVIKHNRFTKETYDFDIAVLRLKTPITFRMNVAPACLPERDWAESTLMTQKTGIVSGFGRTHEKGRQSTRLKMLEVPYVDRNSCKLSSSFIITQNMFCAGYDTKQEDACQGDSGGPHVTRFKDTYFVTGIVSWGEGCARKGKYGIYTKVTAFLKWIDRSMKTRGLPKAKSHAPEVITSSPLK

[22] = molecular target: T1, Voltage-gated inwardly rectifying potassium channel KCNH2 (Homo sapiens, UniProt Q12809); test: Inhibition of human ERG expressed in HEK293 cells by patch-clamp method; format: cell-based
T1 sequence (Q12809 whole entry): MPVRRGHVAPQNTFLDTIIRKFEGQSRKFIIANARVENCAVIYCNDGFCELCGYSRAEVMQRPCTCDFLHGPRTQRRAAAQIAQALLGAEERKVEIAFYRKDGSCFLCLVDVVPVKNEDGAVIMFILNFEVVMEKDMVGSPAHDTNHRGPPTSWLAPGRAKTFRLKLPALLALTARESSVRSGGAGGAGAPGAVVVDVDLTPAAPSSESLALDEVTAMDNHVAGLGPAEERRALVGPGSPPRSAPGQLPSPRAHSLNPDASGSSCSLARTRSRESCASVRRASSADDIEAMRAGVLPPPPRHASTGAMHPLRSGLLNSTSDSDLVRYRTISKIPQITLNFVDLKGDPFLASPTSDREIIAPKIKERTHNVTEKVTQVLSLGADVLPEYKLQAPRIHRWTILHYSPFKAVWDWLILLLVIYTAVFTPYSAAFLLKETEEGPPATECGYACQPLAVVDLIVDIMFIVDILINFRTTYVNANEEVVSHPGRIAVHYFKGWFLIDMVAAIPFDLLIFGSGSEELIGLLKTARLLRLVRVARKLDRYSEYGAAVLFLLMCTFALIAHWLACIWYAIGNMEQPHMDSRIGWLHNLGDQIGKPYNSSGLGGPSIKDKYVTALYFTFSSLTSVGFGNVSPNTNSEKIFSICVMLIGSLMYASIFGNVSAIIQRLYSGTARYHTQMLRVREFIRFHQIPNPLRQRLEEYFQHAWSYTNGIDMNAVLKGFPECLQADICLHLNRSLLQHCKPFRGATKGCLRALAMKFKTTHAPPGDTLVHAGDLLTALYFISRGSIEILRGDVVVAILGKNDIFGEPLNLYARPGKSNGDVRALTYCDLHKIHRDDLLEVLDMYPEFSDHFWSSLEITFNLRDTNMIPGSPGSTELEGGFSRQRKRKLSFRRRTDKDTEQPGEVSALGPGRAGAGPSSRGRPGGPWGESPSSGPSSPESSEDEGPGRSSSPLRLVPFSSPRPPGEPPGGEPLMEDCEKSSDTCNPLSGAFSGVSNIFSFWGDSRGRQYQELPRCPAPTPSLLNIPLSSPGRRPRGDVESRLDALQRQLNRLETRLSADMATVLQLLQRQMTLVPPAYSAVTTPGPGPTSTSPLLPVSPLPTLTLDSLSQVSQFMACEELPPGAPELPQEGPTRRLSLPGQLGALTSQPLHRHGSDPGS

[23] = molecular target: T1, Voltage-gated inwardly rectifying potassium channel KCNH2

half-life [3] [min] | IC50 [4] [µM] | clearance [5] [mL/min/kg] | bioavailability [7] [%] | fraction unbound at 0.5 h, 10 µM [8] | half-life [9] [min] | AUC [10] [ng·h/mL] | clearance [11] [mL/min/kg] | half-life [12] [min] | bioavailability [13] [%] | AUC [15] [ng·h/mL] | AUC [16] [ng·h/mL] | Vd [17] [L/kg] | Vd [18] [L/kg] | bioavailability [19] [%] | Vd [20] [L/kg] | clearance [21] [mL/min/kg] | Structure (SMILES) | other results
– | – | – | – | – | – | – | – | – | – | – | – | – | – | – | – | – | CN(C)C(=N)c1ccc(C(=O)Nc2ccccc2C(=O)Nc2ccc(Cl)cn2)cc1 | bioavailability [1]: 31%
576 | 6.3 | 26.5 | 23.8 | 0.8 | 1270 | 4180 | 18.7 | 528 | 51.6 | 456 | 825 | 13.4 | 32.9 | 58.7 | 48.8 | 43.6 | COc1ccc(NC(=O)c2ccc(C(=N)N(C)C)cc2)c(C(=O)Nc2ccc(Cl)cn2)c1 [BETRIXABAN] | IC50 [2]: > 10 µM; IC50 [6]: > 10 µM; IC50 (Plasminogen): > 10 µM; IC50 [14]: > 10 µM; IC50 (Prothrombin): > 10 µM
684 | 7.2 | 24.6 | 48.6 | 0.634 | 474 | 6170 | 16.2 | 330 | 88.9 | 770 | 1500 | 16.3 | 26.5 | 77.6 | 16.8 | 57.5 | COc1ccc(NC(=O)c2ccc(C(=N)N(C)C)cc2F)c(C(=O)Nc2ccc(Cl)cn2)c1 | IC50 (Coagulation factor X): 0.7 nM; Ki (Coagulation factor X): 0.105 nM; IC50 [22]: 4.2 µM; Ki [23]: 2100 nM
